# Results taken from US20190134039A1, “ANTIVIRAL JAK INHIBITORS USEFUL IN TREATING OR PREVENTING RETROVIRAL AND OTHER VIRAL INFECTIONS” (EMORY UNIVERSITY, priority 2011, published 2019).
# “Also recorded” adds a separate entry of the source. Like-named read-outs stand apart in the source and are kept apart here.
# How the values were obtained:
# [1] = tested on: acute infection in rhesus macaque lymphocytes; assay: cells; conditions: Macaca mulatta, Lymphocyte; for EC90: read-out: Acute infection in rhesus macaque lymphocytes EC90
# From the text: (§1) The data (Shown in Table 5 below) are mean and standard deviations from at least three independent experiments.
# [2] = tested on: acute infection in rhesus macaque macrophages; assay: cells; conditions: for EC90: read-out: Acute infection in rhesus macaque macrophages EC90
# From the text: as §1
# [3] = tested on: HIV-1 containing 4xAZT (D67N/K70R/T215Y/K219Q); assay: microbe, parasite or virus in culture; type: cell-based; conditions: Human immunodeficiency virus 1, Lymphocyte
# [4] = tested on: HIV-2; assay: microbe, parasite or virus in culture; conditions: Human immunodeficiency virus 2, PBMC; for EC90: read-out: Anti-HIV-2 EC90 in acutely infected PBM cells
# [5] = tested on: HIV-1 containing M184V; assay: microbe, parasite or virus in culture; type: cell-based; conditions: Human immunodeficiency virus 1, Lymphocyte
# [6] = tested on: PHA stimulated PBM cells; assay: cells; conditions: Homo sapiens, PBMC, read-out: IC50 in PHA stimulated PBM cells *MTT Assay
# [7] = tested on: HIV-1LAI; assay: microbe, parasite or virus in culture; conditions: for EC90: read-out: Anti-HIV-1 EC90 in acutely infected PBM cells
# From the text: PBM cells were isolated as follows: Lymphocytes were isolated from buffy coats derived from healthy donors obtained from Life South Laboratories (Dunwoody, Ga.). Activated lymphocytes were maintained for 72 hrs in medium that was supplemented with […] phytohemagglutinin (PHA) (Cape Cod associates, East Falmouth, Mass.). Media was comprised of RPMI media supplemented with 20% fetal calf serum, 1% penicillin/streptomyocin and 2% L-glutamine (Sigma Aldrich, San Jose, Calif.).
# PBM cell infections: Testing was performed in duplicate with at least 3 independent assays. Cells were incubated in RPMI medium (HyClone, Logan, Utah) containing HR-IL2 (26.5 units/ml) and 20% fetal calf serum. Infections were performed by adding HIV-1LA1 followed by a further incubation at 37° C., 5% CO2, 1 hr prior to addition of drugs. Assays were performed in 24 well plates (BD Biosciences, Franklin Lakes, N.J.). One ml of supernatant was collected after 5 days in culture and then centrifuged at 12,000 rpm for 2 hr at 4° C. in a Jouan Br43i (Thermo Electron Corp., Marietta, Ohio). The product of the RT assay was quantified using a Packard harvester and direct beta counter and the data were analyzed as previously described (Schinazi et al, 1990).
# [8] = tested on: PBM cells; assay: cells; conditions: Homo sapiens, PBMC, read-out: IC50 in PBM cells *Propidium Iodide assay
# [9] = tested on: HIV-1BaL; assay: microbe, parasite or virus in culture; conditions: for EC90: read-out: Anti-HIV-1 EC90 in acutely infected MΦ
# Protocol: Macrophages were isolated as follows: Monocytes were isolated from buffy coats of HIV-1 negative, HBV/HCV-negative donors with density gradient centrifugation coupled with enrichment for CD14+ monocytes with Rosette Sep antibody cocktail (Stem Cell Technologies, Vancouver, British Columbia). Cells were seeded at a concentration of 1.0×10^6 cells/well for 1 hr at 37° C. and 5% CO2 to confer plastic adherence prior to repeated washes with 1×PBS. Macrophages were maintained in medium containing 100 U/ml macrophage colony-stimulating factor (m-CSF, R&D Systems, Minneapolis, Minn.), supplemented with 20% fetal calf serum (Atlanta Biologicals, Lawrenceville, Ga.) and 1% penicillin/streptomyocin (Invitrogen, Carlsbad, Calif.) for 7 days (37° C., 5% CO2) prior to testing.
# Macrophage infections: Macrophages were cultured as described above for 7 days. […] 4 hrs after infection, virus was removed and drug-containing medium was returned to the cultures. Supernatants were collected on day 7 post-infection and HIV-1 p24 was quantified via ELISA (Zeptometrix Corporation, Buffalo, N.Y.). EC50 analysis was performed using CalcuSyn software (BioSoft Corporation, Cambridge, UK).
# [10] = tested on: HIV-1 containing L74V; assay: microbe, parasite or virus in culture; type: cell-based; conditions: Human immunodeficiency virus 1, Lymphocyte
# [11] = tested on: HIV-1 containing A62V/V75I/F77L/F116Y/Q151M; assay: microbe, parasite or virus in culture; type: cell-based; conditions: Human immunodeficiency virus 1, Lymphocyte
# [12] = tested on: Mφ; assay: cells; conditions: Homo sapiens, read-out: IC50 in Mφ *MTT Assay
# [13] = tested on: wild-type HIV-1xxLAI; assay: Antiviral potency in primary human lymphocytes, wild type; type: cell-based; conditions: Human immunodeficiency virus 1, Lymphocyte; xxLAI; primary human lymphocytes; read-out: EC90
# [14] = tested on: PHA + IL-2 PBM cells; assay: cells; conditions: Homo sapiens, PBMC, read-out: IC50 in PHA + IL-2 PBM cells *MTT Assay
# [15] = tested on: HIV-1 containing K65R; assay: microbe, parasite or virus in culture; type: cell-based; conditions: Human immunodeficiency virus 1, Lymphocyte
# [16] = tested on: activated PBM cells; type: cell-based, human
# From the text: The data is shown in FIG. 2, in terms of total cell number (10^6 cells) versus aM drug in medium.
# The data is shown in FIG. 3, in terms of cell viability (%) versus aM drug in medium.
# [17] = tested on: integrated viral DNA; assay: Integrated viral DNA in CD4 T cells from viremic donors (Alu PCR); type: cell-based; conditions: CD4 T cells from HIV-infected individuals; alone and in the presence of HAART
# Protocol: (§2) FIGS. 11 A-E are graphicals showing that Jak inhibitors reduce frequency of cells harboring integrated viral DNA and IL-15-induced reactivation of latent HIV-1 in CD4 T cells. CD4 T cells were isolated from viremic donors and incubated with CD3/CD28 plus 0.01, 0.1, 1.0 or 10 μM of Jak inhibitors with or without EC99 of ART (180 nM zidovudine, 100 nM efavirenz, 200 nM Raltegravir) (A and B). After six days, integrated viral DNA was quantified using ultra sensitive Alu PCR versus DMSO controls (n=5). 0.01 μM represents the average of all assays completed using % DMSO equivalent to Jak inhibitor concentrations. Error bars represent S.E.M. and statistical significance determined by two-way ANOVA followed by Sidak's multiple comparison post-test: *p<0.05, **p<0.01, ***p<0.001 and ****p<0.0001 for A and B. In panel C-E, memory CD4^+ T cells were isolated from ART treated aviremic donors (n=3), activated with 10 ng/ml IL-15 (panel D) or CD3/CD28 (panel E) and maintained with or without 1 μM ruxolitinib in the presence of ART. Six days post reactivation, extracellular viral RNA copies were quantified by qRT-PCR (*p<0.01, one-way ANOVA).
# [18] = tested on: PHA stimulated primary human lymphocytes; assay: Proliferation and viability of PHA stimulated primary human lymphocytes; type: cell-based; conditions: 5 days, all concentrations
# Protocol: (§3) The effect of various Jak inhibitors on proliferation and viability of PHA or PHA+IL-2 stimulated primary human lymphocytes was evaluated using the techniques described above.
# (§4) For all experiments, cells were incubated with media alone or drug-containing medium for 5 days prior to assessment of cell count and viability. Data are mean and standard deviations for at least three independent experiments conducted with at least 4 pooled donors, and duplicates within each experiment.
# [19] = tested on: pSTAT3; assay: cells; conditions: read-out: EC90 pSTAT3
# [20] = tested on: pSTAT1; conditions: primary CD4+T lymphocytes
# [21] = tested on: pSTAT5; conditions: primary CD4+T lymphocytes
# [22] = tested on: latent HIV-1; assay: Reactivation of latent HIV-1 in primary human macrophages (PMA, p24 ELISA); type: cell-based; conditions: drug applied during reactivation, removed thereafter, within 72 hr post reactivation
# [23] = tested on: latent HIV-1; assay: Reactivation of latent HIV-1 in memory CD4+ T cells from ART treated aviremic donors; type: cell-based; conditions: CD4 T cells from HIV-infected individuals; alone and in the presence of HAART
# Protocol: as §2
# [24] = tested on: various NRTI-resistant HIV-1; assay: Antiviral potency against various NRTI-resistant HIV-1 in primary human lymphocytes (summary over strains); type: cell-based; conditions: K65R, M184V, L74V, A62V/V75I/F77L/F116Y/Q151M, 4xAZT
# From the text: FI50 is the ratio of EC50 against mutant virus:EC50 against wild-type xxLAI. FI90 is the ratio of EC90 against mutant virus:EC90 against wild-type xxLAI.
# [25] = tested on: pSTAT3; conditions: primary CD4+T lymphocytes
# [26] = tested on: PHA+IL-2 stimulated primary human lymphocytes; assay: Proliferation and viability of PHA+IL-2 stimulated primary human lymphocytes; type: cell-based; conditions: PHA+IL-2 stimulated lymphocytes, 5 days
# Protocol: as §3, §4
# [27] = Human immunodeficiency virus 1, PBMC, in Homo sapiens
# [28] = Human immunodeficiency virus 1, Macrophage, in Homo sapiens
structure (smiles),measurement,setting,value
"Cc1cn([C@H]2C[C@H](N=[N+]=[N-])[C@@H](CO)O2)c(=O)[nH]c1=O [AZT, 3′-azido-3′-deoxythymidine]",EC50,[1]; read-out: Acute infection in rhesus macaque lymphocytes EC50,2 ± 1 nM
same,EC90,[1],30 ± 20 nM
same,EC50,"[2]; Macaca mulatta, Macrophage, read-out: Acute infection in rhesus macaque macrophages EC50",80 ± 100 nM
same,EC90,"[2]; Macaca mulatta, Macrophage",900 ± 700 nM
same,EC50,[3],100 ± 100 nM
same,EC90,[3],53300 ± 66100 nM
same,EC50,[4]; read-out: Anti-HIV-2 EC50 in acutely infected PBM cells,1 ± 0.8 nM
same,EC90,[4],10 ± 10 nM
same,EC50,[5],10 ± 20 nM
same,EC90,[5],20 ± 10 nM
same,IC50,[6],> 100000 nM
same,EC50,"[7]; Human immunodeficiency virus 1, PBMC, in Homo sapiens, read-out: Anti-HIV-1 EC50 in acutely infected PBM cells",20 ± 8 nM
same,EC90,[7]; [27],130 ± 30 nM
same,IC50,[8],> 50000 nM
same,EC50,"[9]; Human immunodeficiency virus 1, Macrophage, in Homo sapiens, read-out: Anti-HIV-1 EC50 in acutely infected MΦ",10 ± 20 nM
same,EC90,[9]; [28],70 ± 120 nM
same,EC50,[10],20 ± 20 nM
same,EC90,[10],200 ± 100 nM
same,EC50,[11],4600 ± 7700 nM
same,EC90,[11],41200 ± 50200 nM
same,IC50,[12],> 100000 nM
same,EC90,[13],100 ± 80 nM
same,CC50,[14],> 100000 nM
same,EC50,[15],40 ± 20 nM
same,EC90,[15],300 ± 100 nM
"C[C@@H]1CCN(C(=O)CC#N)C[C@@H]1N(C)c1ncnc2[nH]ccc12 [Tofacitinib, 3-{(3R,4R)-4 methyl-3-[methyl-(7H-pyrrolo[2,3-d]pyrimidin-4-yl)-amino]-piperidin-1-yl}-3-oxo-propionitrile]",EC90,[1],2900 ± 500 nM
same,EC90,"[2]; Macaca mulatta, Macrophage",~4000 nM
same,EC90,[2],3100 ± 900 nM
same,total cell proliferation (total cell number),[16],do not affect total cell proliferation
same,total cell viability,[16],do not affect total cell viability
same,EC90,[3],17100 ± 4500 nM
same,EC90,[4],1800 ± 1100 nM
same,size of the HIV reservoir,[17],decay the size of the HIV reservoir
same,proliferation versus cells exposed to media alone,[18],not significantly different
same,viability versus cells exposed to media alone,[18],not significantly different
same,EC90,[19],900 nM
same,EC90,[5],27100 ± 15700 nM
same,concentrations inhibiting IFN-α induced phosphorylation of STAT1,[20],sub-micromolar
same,concentrations inhibiting IFN-α induced phosphorylation of STAT5,[21],sub-micromolar
same,percent inhibition of reactivation of latent HIV-1 versus no drug control,[22],~40%
same,reservoir reactivation,[23],block reservoir reactivation
same,EC90,[7]; [27],17100 ± 15100 nM
same,inhibition of HIV-1 replication,[7]; PBM cells,sub-micromolar
same,FI50 or FI90 versus wild type HIV-1xxLAI,[24],not significant increase; also recorded: did not display a significant difference
same,antiviral potency for wild-type HIV-1xxLAI versus NRTI-resistant HIV-1,[24],not significantly different
same,concentrations inhibiting IFN-α induced phosphorylation of STAT3,[25],sub-micromolar
same,EC90,[9]; [28],2900 ± 1400 nM
same,inhibition of HIV-1 replication,[9]; MØ cells,sub-micromolar
same,proliferation versus cells exposed to media alone,[26]; 1.0 μM,significantly inhibited
same,viability versus cells exposed to media alone,[26]; all concentrations,not significantly different
same,EC90,[10],47700 ± 45300 nM
same,EC90,[11],8900 ± 8800 nM
same,EC90,[13],28400 ± 16700 nM
same,EC90,[15],81200 ± 26700 nM
